Laboratory results taken from publication PMC5510229, “BCAT1 controls metabolic reprogramming in activated human macrophages and is associated with inflammatory diseases” (Nature Communications, 2017).

Test system: human monocyte-derived macrophages (hMDMs)
Test: hMDM cell viability (alamarBlue)
Type: cell-based
Conditions: ERG240 20 mM
Protocol: Migration of BMDMs an d viability of hMDMs
The migration of BMDMs was assessed using a modified Bo yden chamber methodology.
Specificall y, mouse BMDMs were tr ypsinized and suspended in serum free incomplete medi a containing various concentrations of the drug at a cell density of 2.5x10^4 cells/mL. Volumes of 400 µL of cell suspens ions were added onto the upper chamber of 6.5 m m transwell inserts (Costar, Cat. No. 3422), placed in a 24-well plate (Costar). A volume of 1.5 mL of complete media containing 10% FBS as chemo- attractant were added into the lower chambers of the plate. The assa y also included wells with lower chambers containing serum free incomplete media as negative control. […]
To determine the effect of ERG240 on the total number of BMDMs, cell s were plated onto a 96-well plate at a density of 5,000 cells per well in complete media and allowed to adhere overnight. The cells were then exposed to various drug concentrations overnight and the cell population was quantified with CyQuant Cell Proliferation kit (Life Technologies) using triplicates, in two independent experiments. For hMDMs, cell viability was determined using the alamarBlue® Assa y (Invitrogen). […]
backed up by quantitative proteomics by LC -MS/MS (with maximum of the 12 most abundant multiply -charged ions registered in each survey spectrum selected in a data - […]

With `CC(=O)C(C)CCC(=O)O` (centres unmarked) [ERG240] the “cell viability at 3 and 8 h” value (control and LPS-treated hMDMs) was “did not affect cell viability” and the “cell viability at 24 h” value (only in LPS-stimulated cells) was “modest but significant reduction in cell viability”.
